Activity calls are given as the source filed them. No rule for the calls is given here.
System: L. donovani-infected THP-1 macrophages, intracellular amastigote imaging
Assay: intracellular L. donovani amastigote inhibition, imaging, THP-1 host macrophages, host toxicity (AID 1159564)
[1] = measured here: THP-1 host cell toxicity
[2] = measured here: amastigotes per macrophage

Compound | IC50 | IC50 [1] [µM] | IC50 [2] [µM]
c1ccc2c(CCOc3nccnc3-c3ccncc3)c[nH]c2c1 | > 50 µM (inactive) | 20 | 20
O=C(c1cc2cc(Cl)ccc2[nH]1)N1CCCCC1c1cccnc1 (configuration not stated) | 32 µM | 16 | 10
CCOc1ccc(NC(=O)c2ccc(NC(=O)NC3CCCCC3)cc2)cc1 | 7.9 µM | 4 | 6.3
COCCn1c(-c2ccc3c(c2)OCO3)cnc1NCc1ccccc1OC | 10 µM | 40 | 5
COc1cc(NC(=O)Nc2cccc(CNC(=O)OC3CCCCC3)c2)ccc1-c1cnco1 | > 50 µM (inactive) | 10 | 20
COc1ccccc1-n1c(SCC(=O)Nc2ccc3c(c2)OCO3)nc2c(c1=O)SCC2 | 7.9 µM | > 50 | 5
Cc1cc(Br)sc1CNCCCNc1cc(=O)c2ccccc2[nH]1 | 25 µM | 20 | 20
CC(C)Oc1ccc(C(=O)Nc2ccc(N3CCOCC3)c(Cl)c2)cc1 | > 50 µM (inactive) | > 50 | 3.2
CCOc1ccc(CC(=O)N2c3ccccc3CC2C(=O)NC)cc1 (configuration not stated) | > 50 µM (inactive) | > 50 | > 50
COc1ccc(C2CC(c3ccc(NS(C)(=O)=O)cc3)=NN2C(=O)c2cccs2)cc1OC (configuration not stated) | 5 µM | > 50 | 4
CN(CCOc1ccc(Cl)cc1)Cc1nc(N)nc(N(C)C)n1 | 7.9 µM | > 50 | 5
COc1ccccc1-c1c(C)[nH]c2nc(N)nc(C)c12 | 25 µM | > 50 | 16
CCOc1ccc2nc(NC(=O)c3ccc([N+](=O)[O-])s3)sc2c1 | 6.3 µM | > 50 | 5
Cc1nc2c(-c3n[nH]c(-c4ccccc4N)n3)cccn2c1C | 1.6 µM | 7.9 | 1
Cc1ccc(S(=O)(=O)Nc2ccc(CN3CCN(C(=O)c4cccc(C)c4)CC3)cc2)cc1 | 40 µM | 40 | 32
CCN(CC)S(=O)(=O)c1ccc(OC)c(NC(=O)c2ccc([N+](=O)[O-])s2)c1 | > 50 µM (inactive) | > 50 | > 50
CNc1c(C(N)=O)c(-c2ccc3scnc3c2)nn1CC(F)(F)F | > 50 µM (inactive) | > 50 | > 50

Compound | IC50 | IC50 [1] [µM] | IC50 [2] [µM]
Cc1nc2nc(C)c(Cc3ccc(C(C)C)cc3)c(=O)n2[nH]1 | 32 µM | > 50 | 16
N#Cc1cccc(CN2CCC(N(Cc3cccnc3)C(=O)c3cc(F)c(F)cc3F)CC2)c1 | > 50 µM (inactive) | > 50 | 13
N#Cc1cccc(Nc2nccc(N3CCC(NS(=O)(=O)c4cccc(C#N)c4)CC3)n2)c1 | 10 µM | > 50 | 6.3
COc1ccc(C2=NCC(CSc3nnc(-c4ccc5c(c4)OCO5)o3)S2)cc1 (configuration not stated) | 1 µM | > 50 | 0.4
COc1ccc(Nc2nc(NC3CCC(O)CC3)ncc2Br)c(C(N)=O)c1 (configuration not stated) | 1 µM | 0.4 | 0.63
O=C(Cc1ccc2c(c1)CCC2)Nc1n[nH]c(-c2ccccn2)n1 | 6.3 µM | > 50 | 6.3
COc1cccc(-c2c(C)nn(-c3nc(N)nc(-c4ccccn4)n3)c2N)c1 | 2 µM | > 50 | 1.6
Cc1ccccc1NS(=O)(=O)c1ccc2[nH]cc(C(=O)NC3CCCC3)c(=O)c2c1 | > 50 µM (inactive) | 32 | 40
COCc1cc(Nc2cccc(Cl)c2)nc(-c2ccccn2)n1 | 1.6 µM | > 50 | 0.63
Cc1nnnn1-c1cccc(C(=O)N2CCC[C@@]3(C)c4ncncc4CCC23)c1 (some centres not stated) | > 50 µM (inactive) | > 50 | 6.3
O=S(=O)(c1cccc(CSc2nnc(-c3ccc4c(c3)OCO4)o2)c1)N1CCOCC1 | 0.79 µM | > 50 | 0.25
NC(N)=Nc1nc(-c2ccc(NC(N)=NCCN3CCCC3)cc2)cs1 | > 50 µM (inactive) | > 50 | > 50
Cc1cc(C#N)c([N+](=O)[O-])cc1Br | 40 µM | 25 | 32
COc1cccc(CN(C)Cc2nc(N)c3c(C)c(C)sc3n2)c1 | 5 µM | 32 | 3.2
COc1ccc2ncc(=O)n(CCN3CCC(NCc4ccc(-c5cccs5)cc4)CC3)c2n1 | 3.2 µM | 10 | 1.3
O=C(C1CCCCC1)N1CCN(c2nnc(-c3ccccc3)c3ccccc23)CC1 | > 50 µM (inactive) | 50 | 20
CCn1nccc1CN(C)C(=O)C=Cc1ccc(Cl)cc1 | > 50 µM (inactive) | > 50 | > 50
